Data set [1] is described as follows: Stability in the stomach: hydrolysis rate at pH 1.0 and 2.0. The settings on record: 37° C. In kind it is physicochemical. The method, then:
For this purpose, 1% galactomanno-oligosaccharide solutions were incubated for 3 h at a pH value of 1.0 (0.1 M HCl) and a pH value of 2.0 (0.01 M HCl) and a temperature of 37° C. After 60, 120, and 180 min, samples were taken from the reaction batch and analyzed by means of HPAEC. The control substances used were saccharose and 1-kestose.

The subject of data set [2] is Reh(pre-B) on the colon cell line HT 29. Nature of the data set: Adhesion assay: Reh (pre-B) on the colon cell line HT 29. In kind it is cell-based. The settings on record: 10 μg/batch; for Mittelwert (%) (mean value), specific adhesion: percentage of the 100% value; for Index: relative to without carbohydrate = 1.00. The method, then: In the adhesion assay, the influence of galactomanno-oligosaccharides according to the present invention on the adhesion of B cell lines (for example, Reh) and normal human B lymphocytes to epithelial cells (colon tumor line HT 29) was measured. In the overlay assay used, the lymphocytes were intracellularly marked with calcein so as to make it possible to carry out the measurement by means of fluorometry.
First, coating with the adherent colon epithelial cell one (HT 29) in microtiter plates (24-hole Costar® plates) took place, with incubation (37° C., overnight) until a confluent bed has formed. This is done as much as possible in a serum-free medium Inoculum: 1×10^4 cells. Before the subsequent assay was carried out, the adherent cells were washed three times with PBS(phosphate-buffered physiological saline solution) and blocked for 1 h at room temperature with PBS+1% bovine serum albumin (BSA).
The untreated B cell lines or isolated B lymphocytes to be tested were marked with fluorescent calcein (1×10^7 cells in 2 mL of RPMI medium+HEPES+10 μL of calcein AM, 30 min, 37° C.; subsequently washed 2× with HBSS (Hanks buffer)+0.25% BSA) and 1×10^6 cells in 0.5 mL of PBS+0.25% […] per hole were incubated for 1 h. The culture plate was placed on a shaker for 10 sec, 0.5 mL of 0.2% glutaraldehyde in PBS+0.2% BSA per hole were added and incubated for 10 min on the shaker. The fluorescence of the plate was measured in a fluorescence measuring device ([…]).
The first measurement corresponds to the 100% value. Subsequently, the plate was washed four times and again measured. This measurement corresponds to the specific adhesion which is expressed as a percentage of the 100% value minus the autofluorescence value (unmarked cells). The control substances used were galactose and glucose.

Data set [3] deals with fresh tooth plaque (mixed culture). Nature of the data set: Stability in the mouth: incubation with fresh tooth plaque. It counts as in vitro ADME, male volunteers. The settings on record: 10 mg plaque in 1 mL 1% solution, pH 7.5, 37° C., 2 h (120 min). The method, then:
Plaque samples were obtained from three male volunteers who had not brushed their teeth for three days, and in each case, 10 mg of the plaque were suspended in 1 mL of oligosaccharide solution (1% in 20 mM carbonate buffer, pH 7.5). In the course of the two-hour-long incubation time at 37° C., samples were taken and tested for their oligosaccharide content.

Data set [4] concerns Streptococcus mutans DSM 20523. Kind of data set: Stability in the mouth: incubation with Streptococcus mutans. It counts as in vitro ADME. The settings on record: 1% in 20 mM carbonate buffer pH 7.5, 37° C., 2 h (120 min). The method, then:
(§1) Streptococcus mutans and Streptococcus sobrinus were cultivated for 24 h in liquid DSM medium 92 under anaerobic conditions at 37° C. At the end of the logarithmic growth phase, the cells were centrifuged off (15 min, 4000×g) and resuspended in 10% of the original 20 mM carbonate buffer, pH 7.5. Subsequently, 9 mL of a solution of the oligosaccharides according to the present invention (1% in 20 mM carbonate buffer, pH 7.5) were inoculated with 1 mL of the bacterial suspension and incubated for 2 h at 37° C.

Data set [5] deals with T1, saccharase/isomaltase (SI complex) (Sus scrofa, UniProt P56729).
T1 construct: were isolated from the thin intestine of pigs using the method described by H. Heymann; from tissue; host or cells: pig small intestine (mucous membrane)
T1 sequence (P56729 with tags, fused parts or gaps): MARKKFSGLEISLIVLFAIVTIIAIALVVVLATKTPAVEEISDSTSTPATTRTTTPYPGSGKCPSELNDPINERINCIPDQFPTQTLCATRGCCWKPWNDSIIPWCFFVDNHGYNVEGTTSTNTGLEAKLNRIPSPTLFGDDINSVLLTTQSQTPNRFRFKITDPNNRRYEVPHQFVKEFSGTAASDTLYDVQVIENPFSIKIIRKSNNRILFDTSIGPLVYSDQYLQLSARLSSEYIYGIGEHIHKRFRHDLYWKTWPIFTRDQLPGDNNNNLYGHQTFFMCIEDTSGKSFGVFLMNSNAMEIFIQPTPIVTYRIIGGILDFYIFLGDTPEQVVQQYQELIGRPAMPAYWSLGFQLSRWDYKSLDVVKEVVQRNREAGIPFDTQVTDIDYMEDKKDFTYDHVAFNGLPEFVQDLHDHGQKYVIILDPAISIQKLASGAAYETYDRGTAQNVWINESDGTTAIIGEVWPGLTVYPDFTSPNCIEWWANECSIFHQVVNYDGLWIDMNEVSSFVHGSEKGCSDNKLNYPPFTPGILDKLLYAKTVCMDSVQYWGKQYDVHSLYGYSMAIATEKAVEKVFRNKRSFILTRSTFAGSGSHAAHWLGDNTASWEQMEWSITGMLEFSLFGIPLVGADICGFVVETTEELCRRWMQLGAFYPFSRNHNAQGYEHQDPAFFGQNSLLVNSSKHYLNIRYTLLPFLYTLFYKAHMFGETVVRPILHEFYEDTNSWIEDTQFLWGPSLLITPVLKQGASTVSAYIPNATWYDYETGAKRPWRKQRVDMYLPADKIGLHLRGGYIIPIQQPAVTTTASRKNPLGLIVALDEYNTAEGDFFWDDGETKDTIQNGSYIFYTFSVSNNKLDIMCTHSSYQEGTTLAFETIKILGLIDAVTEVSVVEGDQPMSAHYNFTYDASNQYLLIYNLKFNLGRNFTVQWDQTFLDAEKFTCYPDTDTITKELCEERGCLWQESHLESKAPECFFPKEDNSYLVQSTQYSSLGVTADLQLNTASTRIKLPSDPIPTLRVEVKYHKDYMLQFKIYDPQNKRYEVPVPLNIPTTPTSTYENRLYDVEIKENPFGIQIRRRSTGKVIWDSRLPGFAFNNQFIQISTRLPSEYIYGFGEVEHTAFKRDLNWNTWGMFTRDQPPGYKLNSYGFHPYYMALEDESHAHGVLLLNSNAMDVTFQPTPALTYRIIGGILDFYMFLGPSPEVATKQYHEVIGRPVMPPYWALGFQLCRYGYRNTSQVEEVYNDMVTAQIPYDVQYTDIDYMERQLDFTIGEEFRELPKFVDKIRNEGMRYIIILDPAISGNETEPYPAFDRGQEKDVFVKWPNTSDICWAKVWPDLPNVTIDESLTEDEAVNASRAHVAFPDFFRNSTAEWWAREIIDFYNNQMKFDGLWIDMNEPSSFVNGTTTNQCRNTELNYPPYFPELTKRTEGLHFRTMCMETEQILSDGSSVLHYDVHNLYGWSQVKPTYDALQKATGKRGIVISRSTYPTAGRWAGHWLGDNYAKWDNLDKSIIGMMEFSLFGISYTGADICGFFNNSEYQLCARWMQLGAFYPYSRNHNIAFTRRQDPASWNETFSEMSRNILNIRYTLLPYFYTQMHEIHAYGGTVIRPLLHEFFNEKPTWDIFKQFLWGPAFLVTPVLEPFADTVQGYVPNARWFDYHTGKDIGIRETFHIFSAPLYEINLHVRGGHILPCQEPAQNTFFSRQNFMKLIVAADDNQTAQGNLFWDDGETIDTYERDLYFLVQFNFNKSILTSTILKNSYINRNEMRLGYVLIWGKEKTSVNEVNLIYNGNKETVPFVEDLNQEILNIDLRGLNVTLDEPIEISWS
Nature of the data set: Cleavability by alpha-glucosidases of the small intestine, SI complex. It counts as in vitro ADME, pigs. The settings on record: SI enzyme complex 0.7 U, 1% in TRA buffer pH 7.0, 2 h, 37° C. From the text:
In vivo, the enzyme complexes saccharase/isomaltase and glucoamylase/maltase which are present in the mucous membranes of the small intestine ensure that after their passage into the small intestine, the disaccharides maltose and saccharose and in part also the malto-oligosaccharides are cleaved to form monosaccharides and as such are able to reach the circulatory system via the intestinal wall.
The stability of the galactomanno-oligosaccharides according to the present invention against these enzymes was tested as follows:
The enzyme complexes saccharase/isomaltase (SI complex) and glucoamylase/maltase (GM complex) were isolated from the thin intestine of pigs using the method described by H. Heymann (dissertation, Hannover, 1991).
The cleavability of the galactomanno-oligosaccharides according to the present invention by means of a-glucosidases present in the small intestine was determined as follows:
Triethanolamine (TRA) buffer, 0.1 M, pH 7.0
Galactomanno-oligosaccharides, 1% solution in TRA buffer
Maltose and saccharose as control substances, 1% in TRA buffer […]
At t=0, 0.7 U of the enzyme complex saccharase/isomaltase or glucoamylase/maltase were added to 1.2 mL of the carbohydrate solution which had been heated to a temperature of 37° C., mixed, and incubated at 37° C. […] The monosaccharides formed as well as the test substances used were quantitatively determined by means of HPAEC.

Data set [6] has as its system Streptococcus sobrinus NCTC 10922. Kind of data set: Stability in the mouth: incubation with Streptococcus sobrinus. In kind it is in vitro ADME. The settings on record: 1% in 20 mM carbonate buffer pH 7.5, 37° C., 2 h (120 min). The method, then: as §1
In data set [7] the test system is resected colon pieces (distal segment). Nature of the data set: Mucus secretion of resected colon pieces. Particulars: pig colon pieces, 5 h, 37°, Hanks buffer; galactomanno-oligosaccharides 1%. It counts as cell-based. The method, then:
After thoroughly cleaning the resected colon of a freshly slaughtered pig, pieces measuring 1 cm^2 were cut from the distal segment of said colon. The pieces thus prepared were incubated, while stirring and fumigating with oxygen, for 5 h at a temperature of 37° in Hanks buffer to which chloramphenicol and ampicillin (50 μg/mL each) had been added. The buffer additionally contained 1% of the galactomanno-oligosaccharides produced according to the present invention and to be tested for their stimulating effect on the mucus secretion. As a control, 10 colon segments were used in each batch to be tested. One of the batches contained hydrocortisone which is normally used in the treatment of inflammatory intestinal diseases.
As a measure for an increase in the mucus secretion, the increase in the total carbohydrate content in the supernatant portion was measured. For this purpose, during the incubation, samples were collected at various times, and 20 μL of resorcin solution (6 mg/mL) and 100 μL of 75% sulfuric acid were added to 10 μL of each sample, and after an incubation time of 60 min at 80° C., the extinction was measured at λ=450 nm.

A further data set relates to E. coli, 2 strains. Nature of the data set: Adhesion of pathogenic microorganisms to human uroepithelial cells, E. coli. It counts as cell-based. Particulars: human uroepithelial cells preincubated with the carbohydrate. The method, then:
(§2) Human uroepithelial cells obtained by means of centrifugation from first morning urine
(§3) Staphylococcus aureus, 2 strains, and E. coli, 2 strains, each as suspension with 10^9 microorganisms/mL
(§4) The epithelial cells and the suspension of microorganisms were combined and incubated for 30 min at 37° C. Subsequently, the epithelial cells were separated from the nonadherent microorganisms by means of membrane filtration (8 μ). The filters were repeatedly washed and placed into physiological saline solution, and the epithelial cells were suspended in said solution. After centrifuging the suspension in saline solution, the pellet was placed on a microscopic slide and stained according to May-Grünwald and Giemsa. The number of the microorganisms adhering to 50 epithelial cells as counted. The number represented the blank reading. Epithelial cells without the addition of a suspension of microorganisms served as the control.
(§5) In the main test, epithelial cells were first incubated for 1, 2, and 3 h with galactomanno-oligosaccharide solutions of different concentrations. They were subsequently combined with the suspension of microorganisms and treated as described above. The number of microorganisms adhering to 50 epithelial cells represented the measured value.

Data set [8] concerns Staphylococcus aureus, 2 strains. Kind of data set: Adhesion of pathogenic microorganisms to human uroepithelial cells, Staphylococcus aureus. It counts as cell-based. Particulars: human uroepithelial cells preincubated with the carbohydrate. The method, then:
as §2, §3, §4, §5

The next data set has as its system monocytes. Kind of data set: Phagocytosis assay, monocytes. In kind it is cell-based. The settings on record: E. coli nonopsonized, 100 μg/batch, whole blood. The method, then: (§6) The influence of the galactomanno-oligosaccharides according to the present invention on the function of the phagocytes (mono-, granulocytes) can be determined by means of phagocytosis assays. During the phagocytosis stimulation, the phagocytes were first incubated with galactomanno-oligosaccharides (100 μg of glycan/0. 11 mL of whole blood, 37° C., 10 min). A corresponding blank was incubated for 10 min in an ice bath. Subsequently, the actual phagocytosis test was carried out under the following conditions:
(§7) 0.11 mL of the preliminary incubation solution was allowed to stand for 10 min in the ice bath; subsequently, 0.01 mL of nonopsonized E. coli (fluorescein isothiocyanate (FITC) marked, 10^9 per mL, ORPEGEN) or 0.01 mL of nonopsonized Staphylococcus aureus (15×10^6 per mL, FITC marked, MOLECULAR PROBES) were added. The batches were incubated (double determinations) for 10 min at 37° C. The batches were washed twice with 3 mL of washing buffer (ORPEGEN) each and centrifuged at 250×g for 5 min at 4° C. […]
(§8) The measurement was carried out in the flow cytometer (excitation: 488 nm, emission FL-1: 520 nm); monocytes and granulocytes can be distinguished from each other without separation (forward light scatter (FSC) versus ([…]) (sideways light scatter). The results are expressed as a percentage of the phagocytosis-positive cells (see Table VI below). […]

A further data set deals with granulocytes. Nature of the data set: Phagocytosis assay, granulocytes. In kind it is cell-based. Particulars: 100 μg/batch, whole blood. The method, then: as §6, §7, §8

Structures are written as SMILES.

Regarding `OC[C@H]1O[C@@](CO)(OC[C@@]2(O[C@H]3O[C@H](CO)[C@@H](O)[C@H](O)[C@H]3O)O[C@H](CO)[C@@H](O)[C@@H]2O)[C@@H](O)[C@@H]1O` [1-Kestose, 1-kestose], the “Hydrolysis rate in %” value in data set [1] (pH 1 (0.1 M HCl), 60 min) was 90%; in data set [1] (pH 1 (0.1 M HCl), 120 min), 100%; in data set [1] (pH 1 (0.1 M HCl), 180 min), 100%; in data set [1] (pH 2 (0.01 M HCl), 60 min) it was 16%; in data set [1] (pH 2 (0.01 M HCl), 120 min), 30%; in data set [1] (pH 2 (0.01 M HCl), 180 min), 43%.

For the molecule `O=C[C@H](O)[C@@H](O)[C@@H](O)[C@H](O)CO` [D-Galactose], in data set [2], the “Mittelwert (%) (mean value), specific adhesion” value worked out at 51% and the Index was 1.12.

For the molecule `O=C[C@H](O)[C@@H](O)[C@H](O)[C@H](O)CO` [D-Glucose], in [2], the “Mittelwert (%) (mean value), specific adhesion” value is reported as 47% and the Index is on record as 1.11.

As to `OC[C@H]1O[C@@](CO)(O[C@H]2O[C@H](CO)[C@@H](O)[C@H](O)[C@H]2O)[C@@H](O)[C@@H]1O` [Saccharose, saccharose], the “cleavage/hydrolysis of the carbohydrate” value in data set [3], in data set [4] and in data set [6] was “completely hydrolyzed” each time. The “Hydrolyserate (%) (Hydrolysis rate)” value in data set [5] is 98%. For the same molecule, the “Hydrolysis rate in %” value in data set [1] (pH 1 (0.1 M HCl), 60 min) amounted to 24%; in data set [1] (pH 1 (0.1 M HCl), 120 min), 55%; in [1] (pH 1 (0.1 M HCl), 180 min) it was 61%; in data set [1] (pH 2 (0.01 M HCl), 60 min), 1%; in data set [1] (pH 2 (0.01 M HCl), 120 min) it was 2%; in data set [1] (pH 2 (0.01 M HCl), 180 min), 7%.

In the case of `C[C@]12CCC(=O)C=C1CC[C@@H]1[C@@H]2[C@@H](O)C[C@@]2(C)[C@H]1CC[C@]2(O)C(=O)CO` [hydrocortisone], in data set [7], the “increase in the mucus secretion compared to the control (total carbohydrate in supernatant)” value is given as “approximately 5.3 -fold”.

Consider `OC[C@H]1O[C@H](O[C@]2(CO)O[C@H](CO[C@H]3O[C@H](CO)[C@@H](O)[C@H](O)[C@H]3O)[C@@H](O)[C@@H]2O)[C@H](O)[C@@H](O)[C@@H]1O` [isomelzitose], for which the “number of microorganisms adhering to the epithelial cells” value (from here on “number of microorganisms adhering”) is “not reduced” in the data set on E. coli, 2 strains and “not reduced” in data set [8].

As to `OC[C@H]1O[C@@](CO)(OC[C@@]2(OC[C@@]3(O[C@H]4O[C@H](CO)[C@@H](O)[C@H](O)[C@H]4O)O[C@H](CO)[C@@H](O)[C@@H]3O)O[C@H](CO)[C@@H](O)[C@@H]2O)[C@@H](O)[C@@H]1O` [nystose], the “number of microorganisms adhering” value in the data set on E. coli, 2 strains is “not reduced”; in [8], “not reduced”.

With `OC[C@H]1O[C@H](OC[C@H]2O[C@H](O[C@]3(CO)O[C@H](CO)[C@@H](O)[C@@H]3O)[C@H](O)[C@@H](O)[C@@H]2O)[C@H](O)[C@@H](O)[C@H]1O` [raffinose], the “number of microorganisms adhering” value was “not reduced” in the data set with E. coli, 2 strains and “not reduced” in data set [8]. Also, the “Monocyten (% positive Zellen), phagocytosis-positive cells” value in the data set on monocytes came to 22.0%. Besides, the “Granulocyten (% positive Zellen), phagocytosis-positive cells” value with granulocytes (E. coli nonopsonized) turned out to be 17.0%; in the data set with granulocytes (Staph. aureus nonopsonized), 30.0%.
